Values of other authors as cited in patent US12552830B2, “Steroidal compound derivatives as therapeutic agents” (priority 2020, dated 2026).
“Also recorded” adds a separate entry of the source.

Assays:
HIV = conditions: latent CD4+T cells, in vitro
[1] = system: transactivator of transcription (Tat)
[2] = system: human umbilical endothelial cell (HUVEC)

CN(C)[C@H]1C[C@@]23CC[C@@]4(O2)C(=CC[C@]2(C)C(c5ccc6ccncc6c5)=CCC24)C=C3[C@@H](O)[C@@H]1O (stereo partly shown) [dCA, didehydro-cortistatin A]
viral reactivation of HIV (HIV): prevents viral reactivation of HIV in vitro; also recorded: prevents viral reactivation in latent CD4+T cells in vitro | inhibition of Tat [1]: most potent inhibitor of transactivator of transcription (Tat)

cortistatin A
IC50 ([2]; HUVECs, read-out: IC50, selective anti-proliferative activity of HUVECs): 1.8 nM | selectivity for HUVECs over other cell lines ([2]; over NHDF, KB3-1, K562 and Neuro2A cells): 3000 fold
